Results from PubChem BioAssay (NCI).
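The compound was tested at five concentrations on cells cultured in 96-well plates, with a 48-hour exposure period. The concentration for 50% growth inhibition is given as GI50. TGI denotes the concentration required for complete inhibition of growth.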

Assays:
Assay in all cases: NCI anticancer screen, dose series, 48 h
[1] = test system: HT29 colon
[2] = test system: RPMI-8226 leukemia
[3] = test system: SR leukemia
[4] = test system: U251 CNS
[5] = test system: HCT-116 colon
[6] = test system: NCI-H23 lung
[7] = test system: NCI-H522 lung
[8] = test system: NCI/ADR-RES ovarian
[9] = test system: SK-MEL-28 melanoma
[10] = test system: PC-3 prostate
[11] = test system: RXF 393 renal
[12] = test system: K-562 leukemia
[13] = test system: CAKI-1 renal
[14] = test system: MOLT-4 leukemia
[15] = test system: SNB-19 CNS
[16] = test system: SW-620 colon
[17] = test system: SNB-75 CNS
[18] = test system: IGROV1 ovarian
[19] = test system: DU-145 prostate
[20] = test system: TK-10 renal
[21] = test system: UO-31 renal
[22] = test system: UACC-257 melanoma
[23] = test system: 786-0 renal
[24] = test system: OVCAR-5 ovarian
[25] = test system: MDA-MB-435
[26] = test system: BT-549 breast
[27] = test system: HL-60(TB) leukemia
[28] = test system: CCRF-CEM leukemia
[29] = test system: SF-539 CNS
[30] = test system: HS 578T breast
[31] = test system: ACHN renal
[32] = test system: MCF7 breast
[33] = test system: KM12 colon
[34] = test system: LOX IMVI melanoma
[35] = test system: COLO 205 colon
[36] = test system: SK-MEL-2 melanoma
[37] = test system: OVCAR-3 ovarian
[38] = test system: SN12C renal
[39] = test system: HCT-15 colon
[40] = test system: A549 NSCLC
[41] = test system: NCI-H460 lung
[42] = test system: UACC-62 melanoma
[43] = test system: SK-MEL-5 melanoma
[44] = test system: SF-295 CNS
[45] = test system: EKVX NSCLC
[46] = test system: NCI-H226 lung
[47] = test system: MDA-MB-231 breast
[48] = test system: HOP-62 NSCLC
[49] = test system: OVCAR-8 ovarian
[50] = test system: SF-268 CNS

Molecule CN(c1ccc(C(=O)O)cc1)c1cc(O/N=[N+](\[O-])N(C)C)c([N+](=O)[O-])cc1[N+](=O)[O-] has a GI50 [1] of 23 µM, a TGI [1] greater than 100 µM and a GI50 [2] of 2.79 µM. The TGI [2] was 18 µM, the GI50 [3] was 19.8 µM and the TGI [3] was greater than 100 µM. The GI50 [4] was 3.69 µM, the TGI [4] was 14.1 µM and the GI50 [5] was 2.72 µM. The TGI [5] was 10.4 µM, the GI50 [6] was 4.83 µM and the TGI [6] was 29.2 µM. The GI50 [7] was 15.1 µM, the TGI [7] was greater than 100 µM and the GI50 [8] was 3.35 µM. It also gave a TGI [8] of 17.2 µM, a GI50 [9] of 21 µM and a TGI [9] of 57.1 µM. It also gave a GI50 [10] of 17.5 µM, a TGI [10] of 38.1 µM and a GI50 [11] of 17.1 µM. For the same molecule, the TGI [11] was 33.8 µM, the GI50 [12] was 6.99 µM and the TGI [12] was greater than 100 µM. It also gave a GI50 [13] of 1.79 µM, a TGI [13] of 4 µM and a GI50 [14] of 12.1 µM. For the same molecule, the TGI [14] was greater than 100 µM, the GI50 [15] was 14.6 µM and the TGI [15] was 40.7 µM. It also gave a GI50 [16] of 3.64 µM, a TGI [16] greater than 100 µM and a GI50 [17] of 25.6 µM. For the same molecule, the TGI [17] was 55.6 µM, the GI50 [18] was 5.48 µM and the TGI [18] was 24.5 µM. The GI50 [19] was 17.1 µM, the TGI [19] was 33.5 µM and the GI50 [20] was 13.9 µM. It also gave a TGI [20] of 26.9 µM, a GI50 [21] of 32.1 µM and a TGI [21] greater than 100 µM. It also gave a GI50 [22] of 21 µM, a TGI [22] of 40.6 µM and a GI50 [23] of 3.25 µM. The TGI [23] was 14.6 µM, the GI50 [24] was 10.8 µM and the TGI [24] was 72.5 µM. It also gave a GI50 [25] of 4.84 µM, a TGI [25] of 19.9 µM and a GI50 [26] of 17.4 µM. The TGI [26] was 32.6 µM, the GI50 [27] was 2.84 µM and the TGI [27] was 27.4 µM. The GI50 [28] was greater than 100 µM, the TGI [28] was greater than 100 µM and the GI50 [29] was 16.6 µM. It also gave a TGI [29] of 35.8 µM, a GI50 [30] of 21.5 µM and a TGI [30] of 61.3 µM. The GI50 [31] was 3.8 µM, the TGI [31] was 14.1 µM and the GI50 [32] was 6.8 µM. It also gave a TGI [32] of 54.8 µM, a GI50 [33] of 10.9 µM and a TGI [33] of 23.9 µM. It also gave a GI50 [34] of 1.86 µM, a TGI [34] of 4.33 µM and a GI50 [35] of 8.78 µM. The TGI [35] was greater than 100 µM, the GI50 [36] was 14.9 µM and the TGI [36] was 39.6 µM. It also gave a GI50 [37] of 2.62 µM, a TGI [37] of 6.92 µM and a GI50 [38] of 12.2 µM. For the same molecule, the TGI [38] was 25.3 µM, the GI50 [39] was 2.03 µM and the TGI [39] was 5.3 µM. The GI50 [40] was 23.5 µM, the TGI [40] was 63.7 µM and the GI50 [41] was 18.9 µM. For the same molecule, the TGI [41] was greater than 100 µM, the GI50 [42] was 7.29 µM and the TGI [42] was 19.8 µM. It also gave a GI50 [43] of 19.1 µM, a TGI [43] of 38.7 µM and a GI50 [44] of 12.6 µM. The TGI [44] was 27 µM, the GI50 [45] was 18.2 µM and the TGI [45] was 36.2 µM. It also gave a GI50 [46] of 11.3 µM, a TGI [46] of 29 µM and a GI50 [47] of 3.71 µM. The TGI [47] was 12.2 µM, the GI50 [48] was 14.5 µM and the TGI [48] was 31.3 µM. For the same molecule, the GI50 [49] was 22.3 µM, the TGI [49] was 54.5 µM and the GI50 [50] was 13.1 µM. For the same molecule, the TGI [50] was 36.3 µM.
